Results taken from paper PMC5679212 (The Biochemical journal, 2014).

Tests used:
Type in all cases: binding
[1] = molecular target: TYK2(JH2) (Homo sapiens, UniProt P29597); experiment: thermal-shift assay
[2] = molecular target: T1, MLKL (mixed lineage kinase domain-like) (Homo sapiens, UniProt Q8NB16); experiment: ITC and thermal-shift assay
T1 sequence (Q8NB16 190-471 limits assumed): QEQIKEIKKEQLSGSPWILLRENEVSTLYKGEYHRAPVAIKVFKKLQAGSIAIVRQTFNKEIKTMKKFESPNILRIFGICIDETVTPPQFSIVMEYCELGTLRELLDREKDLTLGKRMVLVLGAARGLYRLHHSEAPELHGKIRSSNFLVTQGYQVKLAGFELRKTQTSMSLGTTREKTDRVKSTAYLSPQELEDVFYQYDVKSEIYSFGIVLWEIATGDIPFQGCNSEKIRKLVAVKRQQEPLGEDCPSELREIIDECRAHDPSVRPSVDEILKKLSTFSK

[3] = molecular target: T2, EphB6 (Ephrin type-B receptor 6) (Homo sapiens, UniProt O15197); experiment: thermal-shift assay
T2 sequence (O15197 670-919 limits assumed): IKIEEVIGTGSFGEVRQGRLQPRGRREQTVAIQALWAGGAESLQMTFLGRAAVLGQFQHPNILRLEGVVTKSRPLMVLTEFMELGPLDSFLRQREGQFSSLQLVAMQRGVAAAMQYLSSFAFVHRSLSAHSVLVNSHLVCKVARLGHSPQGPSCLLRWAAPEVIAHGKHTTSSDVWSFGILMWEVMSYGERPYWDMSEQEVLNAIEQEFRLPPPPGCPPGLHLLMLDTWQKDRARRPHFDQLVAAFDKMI

[4] = molecular target: ULK4 (unc-51 like kinase 4) (Homo sapiens, UniProt Q96C45); experiment: thermal-shift assay
Sequence of ULK4 (unc-51 like kinase 4) (Q96C45 1-288 limits assumed): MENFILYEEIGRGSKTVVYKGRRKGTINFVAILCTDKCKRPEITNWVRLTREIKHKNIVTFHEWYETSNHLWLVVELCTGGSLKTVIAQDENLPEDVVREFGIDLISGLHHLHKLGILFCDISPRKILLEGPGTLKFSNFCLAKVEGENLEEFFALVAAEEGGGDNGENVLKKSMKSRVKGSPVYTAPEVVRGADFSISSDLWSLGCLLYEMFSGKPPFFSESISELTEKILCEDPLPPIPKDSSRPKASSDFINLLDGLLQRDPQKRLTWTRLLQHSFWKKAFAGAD

Sequence of TYK2(JH2) (P29597 575-869): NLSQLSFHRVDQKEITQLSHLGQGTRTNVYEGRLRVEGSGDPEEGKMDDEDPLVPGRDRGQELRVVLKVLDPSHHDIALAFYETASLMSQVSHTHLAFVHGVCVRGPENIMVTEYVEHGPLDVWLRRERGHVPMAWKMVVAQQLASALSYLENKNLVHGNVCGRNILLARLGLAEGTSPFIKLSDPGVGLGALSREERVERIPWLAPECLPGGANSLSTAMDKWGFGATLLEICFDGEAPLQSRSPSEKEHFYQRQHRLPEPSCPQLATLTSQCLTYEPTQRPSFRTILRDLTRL

SMILES	thermal-shift assay (40 μM ligand, ΔTm ≥3 °C) [1]	Kd [2]	thermal-shift assay (0.2 mM nucleotide) [3]	thermal-shift assay (0.2 mM nucleotide) [4]
NCc1ccc(Nc2ncc(F)c(Nc3ccccc3)n2)cc1 [DAP, N′2′-(4-aminomethyl-phenyl)-5-fluoro-N′4′-phenyl-pyrimidine-2,4-diamine]	consistent with the binding to the small-molecule kinase inhibitors DAP and VI16832 observed in the present study (Figure 2E)			
Nc1ncnc2c1ncn2[C@@H]1O[C@H](COP(=O)(O)OP(=O)(O)OP(=O)(O)O)[C@@H](O)[C@H]1O [ATP]		~15 µM	we observed that ATP binding was still accomplished by EphB6 and ULK4 (Figures 3C and 3E)	we observed that ATP binding was still accomplished by EphB6 and ULK4 (Figures 3C and 3E)
